Measured values taken from patent US8785488B2 (Exelixis Patent Company LLC, priority 2009, dated 2014).

Assays:
h-TGR5 = molecular target: T1, h-TGR5 (Homo sapiens, UniProt Q8TDU6); test: TGR5 cAMP Assay using Cisbio cAMP Dynamic2 htrf kit (hTGR5CRE-luc HEK 293 cells); assay type: cell-based; settings: h-TGR5 cAMP EC50, Table 1; read-out: cAMP (EC50)
T1 construct: expressed in transfected cells
T1 sequence (Q8TDU6 1-330): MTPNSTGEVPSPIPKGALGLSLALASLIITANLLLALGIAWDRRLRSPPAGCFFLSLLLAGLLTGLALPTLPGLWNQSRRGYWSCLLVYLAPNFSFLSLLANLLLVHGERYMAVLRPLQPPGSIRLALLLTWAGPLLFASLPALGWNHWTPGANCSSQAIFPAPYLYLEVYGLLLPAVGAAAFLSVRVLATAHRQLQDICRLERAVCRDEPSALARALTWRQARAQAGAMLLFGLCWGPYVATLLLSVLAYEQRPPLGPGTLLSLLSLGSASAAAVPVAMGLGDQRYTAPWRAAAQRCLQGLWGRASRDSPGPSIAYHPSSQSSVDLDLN
Summary of the method: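 […], 4000 hTGR5CRE-luc HEK 293 cells per well, with 0.5 mM IBMX and d2-cAMP, were incubated 30 min at room temperature with compounds in 8-point half-log series, in quadruplicate.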

human TGR5 (h-TGR5) = molecular target: T2, human TGR5 (h-TGR5) (Homo sapiens, UniProt Q8TDU6); test: TGR5/CRE-Luciferiase Assay (HEK 293 hTGR5/CRE-Luc cells); assay type: cell-based; settings: h-TGR5 CRE-Luc EC50, Table 1; read-out: CRE-Luc (EC50)
T2 construct: expressed in transfected cells
T2 sequence (Q8TDU6 1-330): T1 sequence (Q8TDU6 1-330)
Summary of the method: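 HEK293 cells stably carrying hTGR5 and a CRE-luciferase reporter were exposed to serially diluted compounds (diluted in DMEM with 5% DMSO) for 6 h. Cells were then lysed in luciferase buffer, luminescence was read, and EC50 values were derived from dose-response curves.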

| SMILES | EC50 (h-TGR5) | EC50 (human TGR5 (h-TGR5)) |
| --- | --- | --- |
| CC(C)(c1ccc(Cl)c(Cl)c1)c1cnc(SCC2CCN(S(C)(=O)=O)CC2)n1-c1ccc(F)cc1 [4-[({5-[1-(3,4-dichlorophenyl)-1-methylethyl]-1-(4-fluorophenyl)-1H-imidazol-2-yl}thio)methyl]-1-(methylsulfonyl)piperidine] | 100 to 1000 nM | < 100 nM |
| CC(C)(c1ccc(Cl)c(Cl)c1)c1cnc(SCc2c(F)cc(C(=O)NO)cc2F)n1-c1ccc(F)cc1 [4-[({5-[1-(3,4-dichlorophenyl)-1-methylethyl]-1-(4-fluorophenyl)-1H-imidazol-2-yl}thio)methyl]-3,5-difluoro-N-hydroxybenzamide] | < 100 nM | < 100 nM |
| CC(C)(c1ccc(Cl)c(Cl)c1)c1cnc(SCc2c(F)cc(C(N)=O)cc2F)n1-c1ccc(F)cc1 [4-[({5-[1-(3,4-dichlorophenyl)-1-methylethyl]-1-(4-fluorophenyl)-1H-imidazol-2-yl}thio)methyl]-3,5-difluorobenzamide] | 100 to 1000 nM | 100 to 1000 nM |
| CC(C)(c1ccc(Cl)c(Cl)c1)c1cnc(SCc2c(F)cc(C(=O)O)cc2F)n1-c1ccc(F)cc1 [4-[({5-[1-(3,4-dichlorophenyl)-1-methylethyl]-1-(4-fluorophenyl)-1H-imidazol-2-yl}thio)methyl]-3,5-difluorobenzoic acid] | 100 to 1000 nM | < 100 nM |
| CC(C)(O)CNC(=O)c1ccc(CSc2ncc(C(C)(C)c3ccc(Cl)c(Cl)c3)n2-c2ccc(F)cc2)c(F)c1 [4-[({5-[1-(3,4-dichlorophenyl)-1-methylethyl]-1-(4-fluorophenyl)-1H-imidazol-2-yl}thio)methyl]-3-fluoro-N-(2-hydroxy-2-methylpropyl)benzamide] | 100 to 1000 nM | 100 to 1000 nM |
| CC(C)(c1ccc(Cl)c(Cl)c1)c1cnc(SCc2ccc(C(=O)NCCc3c[nH]cn3)cc2F)n1-c1ccc(F)cc1 [4-[({5-[1-(3,4-dichlorophenyl)-1-methylethyl]-1-(4-fluorophenyl)-1H-imidazol-2-yl}thio)methyl]-3-fluoro-N-[2-(1H-imidazol-4-yl)ethyl]benzamide] | 100 to 1000 nM | 100 to 1000 nM |
| CC(C)(c1ccc(Cl)c(Cl)c1)c1cnc(SCc2ccc(S(N)(=O)=O)cc2F)n1-c1ccc(F)cc1 [4-[({5-[1-(3,4-dichlorophenyl)-1-methylethyl]-1-(4-fluorophenyl)-1H-imidazol-2-yl}thio)methyl]-3-fluorobenzenesulfonamide] | 100 to 1000 nM | 100 to 1000 nM |
| CC(C)(c1ccc(Cl)c(Cl)c1)c1cnc(SCc2ccc(C(=O)O)cc2F)n1-c1ccc(F)cc1 [4-[({5-[1-(3,4-dichlorophenyl)-1-methylethyl]-1-(4-fluorophenyl)-1H-imidazol-2-yl}thio)methyl]-3-fluorobenzoic acid] | 100 to 1000 nM | 100 to 1000 nM |
| CC(C)(c1ccc(Cl)c(Cl)c1)c1cnc(SCc2c(F)cc(C(=O)O)cc2F)n1-c1ccc(F)c(C(F)F)c1 [4-[({5-[1-(3,4-dichlorophenyl)-1-methylethyl]-1-[3-(difluoromethyl)-4-fluorophenyl]-1H-imidazol-2-yl}thio)methyl]-3,5-difluorobenzoic acid] | 100 to 1000 nM | < 100 nM |
| COc1cc(-n2c(C(C)(C)c3ccc(Cl)c(Cl)c3)cnc2SCC2CCN(c3nnn[nH]3)CC2)ccc1F [4-[({5-[1-(3,4-dichlorophenyl)-1-methylethyl]-1-[4-fluoro-3-(methyloxy)phenyl]-1H-imidazol-2-yl}thio)methyl]-1-(1H-tetrazol-5-yl)piperidine] | < 100 nM | < 100 nM |
| COc1cc(-n2c(C(C)(C)c3ccc(Cl)c(Cl)c3)cnc2SCc2c(F)cc(C(=O)O)cc2F)ccc1F [4-[({5-[1-(3,4-dichlorophenyl)-1-methylethyl]-1-[4-fluoro-3-(methyloxy)phenyl]-1H-imidazol-2-yl}thio)methyl]-3,5-difluorobenzoic acid] | < 100 nM | < 100 nM |
| COc1cc(-n2c(C(C)(C)c3ccc(Cl)c(Cl)c3)cnc2SCC2CCN(C(=O)NC(C)C)CC2)ccc1F [4-[({5-[1-(3,4-dichlorophenyl)-1-methylethyl]-1-[4-fluoro-3-(methyloxy)phenyl]-1H-imidazol-2-yl}thio)methyl]-N-(1-methylethyl)piperidine-1-carboxamide] | 100 to 1000 nM | < 100 nM |
| O=C(O)c1cc(F)c(CSc2ncc(C3(c4ccc(Cl)c(Cl)c4)CC3)n2-c2ccc(F)cc2)c(F)c1 [4-[({5-[1-(3,4-dichlorophenyl)cyclopropyl]-1-(4-fluorophenyl)-1H-imidazol-2-yl}thio)methyl]-3,5-difluorobenzoic acid] | 100 to 1000 nM | 100 to 1000 nM |
| CC(C)(c1ccc(F)c(F)c1)c1cnc(SCC2CCN(S(C)(=O)=O)CC2)n1-c1ccc(F)cc1 [4-[({5-[1-(3,4-difluorophenyl)-1-methylethyl]-1-(4-fluorophenyl)-1H-imidazol-2-yl}thio)methyl]-1-(methylsulfonyl)piperidine] | 100 to 1000 nM | < 100 nM |
| CC(C)(c1ccc(F)c(F)c1)c1cnc(SCC2CCN(C(=O)NN3CCCC3)CC2)n1-c1ccc(F)cc1 [4-[({5-[1-(3,4-difluorophenyl)-1-methylethyl]-1-(4-fluorophenyl)-1H-imidazol-2-yl}thio)methyl]-N-pyrrolidin-1-ylpiperidine-1-carboxamide] | 100 to 1000 nM | 100 to 1000 nM |
| CC(C)(c1ccc2onc(N)c2c1)c1cnc(SCc2c(F)cc(C(=O)O)cc2F)n1-c1ccc(F)cc1 [4-[({5-[1-(3-amino-1,2-benzisoxazol-5-yl)-1-methylethyl]-1-(4-fluorophenyl)-1H-imidazol-2-yl}thio)methyl]-3,5-difluorobenzoic acid] | < 100 nM | < 100 nM |
| COc1cc(-n2c(C(C)(C)c3ccc4onc(N)c4c3)cnc2SCc2c(F)cc(C(=O)O)cc2F)ccc1F [4-[({5-[1-(3-amino-1,2-benzisoxazol-5-yl)-1-methylethyl]-1-[4-fluoro-3-(methyloxy)phenyl]-1H-imidazol-2-yl}thio)methyl]-3,5-difluorobenzoic acid] | < 100 nM | < 100 nM |
| CC(C)(c1ccc(F)c(C#N)c1)c1cnc(SCc2c(F)cc(C(=O)O)cc2F)n1-c1ccc(F)cc1 [4-[({5-[1-(3-cyano-4-fluorophenyl)-1-methylethyl]-1-(4-fluorophenyl)-1H-imidazol-2-yl}thio)methyl]-3,5-difluorobenzoic acid] | < 100 nM | < 100 nM |
| COc1cc(-n2c(C(C)(C)c3ccc(F)c(C#N)c3)cnc2SCc2c(F)cc(C(=O)O)cc2F)ccc1F [4-[({5-[1-(3-cyano-4-fluorophenyl)-1-methylethyl]-1-[4-fluoro-3-(methyloxy)phenyl]-1H-imidazol-2-yl}thio)methyl]-3,5-difluorobenzoic acid] | < 100 nM | < 100 nM |
| COc1cc(C(C)(C)c2cnc(SCc3cc(C(=O)O)ccc3Cl)n2-c2ccc(F)cc2)ccc1Cl [4-chloro-3-({[5-{1-[4-chloro-3-(methyloxy)phenyl]-1-methylethyl}-1-(4-fluorophenyl)-1H-imidazol-2-yl]thio}methyl)benzoic acid] | < 100 nM | < 100 nM |
| CC(C)(c1ccc(Cl)c(Cl)c1)c1cnc(SCc2cc(C(=O)O)ccc2Cl)n1-c1ccc(F)cc1 [4-chloro-3-[({5-[1-(3,4-dichlorophenyl)-1-methylethyl]-1-(4-fluorophenyl)-1H-imidazol-2-yl}thio)methyl]benzoic acid] | 100 to 1000 nM | 100 to 1000 nM |
| CC(C)(c1ccc(F)c(F)c1)c1cnc(SCc2cc(C(=O)O)ccc2Cl)n1-c1ccc(F)cc1 [4-chloro-3-[({5-[1-(3,4-difluorophenyl)-1-methylethyl]-1-(4-fluorophenyl)-1H-imidazol-2-yl}thio)methyl]benzoic acid] | 100 to 1000 nM | 100 to 1000 nM |
| COc1cc(C(C)(C)c2cnc(SCc3cc(S(N)(=O)=O)c(F)cc3Cl)n2-c2ccc(F)cc2)ccc1Cl [4-chloro-5-({[5-{1-[4-chloro-3-(methyloxy)phenyl]-1-methylethyl}-1-(4-fluorophenyl)-1H-imidazol-2-yl]thio}methyl)-2-fluorobenzenesulfonamide] | < 100 nM | < 100 nM |
| CC(C)(c1ccc(O)c(O)c1)c1cnc(SCc2c(F)cccc2Cl)n1-c1ccc(F)cc1 [4-{1-[2-{[(2-chloro-6-fluorophenyl)methyl]thio}-1-(4-fluorophenyl)-1H-imidazol-5-yl]-1-methylethyl}benzene-1,2-diol] | 100 to 1000 nM | < 100 nM |
| CC(C)(c1ccc(S(N)(=O)=O)cc1)c1cnc(SCc2c(F)cccc2Cl)n1-c1ccc(F)cc1 [4-{1-[2-{[(2-chloro-6-fluorophenyl)methyl]thio}-1-(4-fluorophenyl)-1H-imidazol-5-yl]-1-methylethyl}benzenesulfonamide] | 100 to 1000 nM | 100 to 1000 nM |
| COc1cc(-n2c(C(C)(C)c3ccc(S(N)(=O)=O)c(Cl)c3)cnc2SCc2c(F)cc(S(=O)(=O)NC(=O)NN3CCOCC3)cc2F)ccc1F [4-{[(5-{1-[4-(aminosulfonyl)-3-chlorophenyl]-1-methylethyl}-1-[4-fluoro-3-(methyloxy)phenyl]-1H-imidazol-2-yl)thio]methyl}-3,5-difluoro-N-[(morpholin-4-ylamino)carbonyl]benzenesulfonamide] | < 100 nM | < 100 nM |
